In PubChem BioAssay AID1259408 (Genetic Toxicology Data Bank (GENE-TOX), 2018):
Activity calls are given as the source filed them. The rule behind the calls is not given here.

System: GENE-TOX genotoxicity assays, various organisms and cells
Test: GENE-TOX mutagenicity studies
Details: for call: Assay Type: In vivo carcinogenicity studies
[1] = Species/Cell Type: Drosophila melanogaster, Assay Type: Sex-linked recessive lethal gene mutation, Assay Code: SRLT, Evaluation Type: Evaluation A (Pre-1980)
[2] = Species/Cell Type: Drosophila melanogaster, Sex: Male, Assay Type: Heritable translocation test, chromosome aberrations, Assay Code: DHTT, Evaluation Type: Evaluation A (Pre-1980)
[3] = Species/Cell Type: Human, Assay Type: Sister-chromatid exchange (SCE) in vitro, Assay Code: SC1T, Evaluation Type: Evaluation B (Post-1980)
[4] = Species/Cell Type: Salmonella typhimurium (one or more of the five standard strains: TA98, TA100, TA1535, TA1537, and TA1538), Assay Type: Histidine reverse gene mutation, Ames assay, Assay Code: SALT, Evaluation Type: Evaluation A (Pre-1980)
[5] = Species/Cell Type: Drosophila melanogaster, Assay Type: Sex-linked recessive lethal gene mutation, Assay Code: SRL+, Evaluation Type: Evaluation A (Pre-1980)
[6] = Species/Cell Type: Salmonella typhimurium (one or more of the five standard strains: TA98, TA100, TA1535, TA1537, and TA1538), Assay Type: Histidine reverse gene mutation, Ames assay, Assay Code: SAL+*, Activation: With metabolic activation, Evaluation Type: Evaluation A (Pre-1980)
[7] = Species/Cell Type: Nonhuman, Assay Code: CCG+, Evaluation Type: Evaluation A (Pre-1980)
[8] = Species/Cell Type: Escherichia coli polA (W3119 vs P3478), Assay Type: Rec-assay, DNA effects (bacterial DNA repair), Assay Code: RE1T, Evaluation Type: Evaluation A (Pre-1980)
[9] = Species/Cell Type: Human diploid fibroblasts, Assay Type: Unscheduled DNA synthesis (UDS) in vitro, DNA effects, Assay Code: UDH-, Evaluation Type: Evaluation A (Pre-1980)
[10] = Species/Cell Type: Human, Assay Type: Sister-chromatid exchange (SCE) in vitro, Assay Code: SC1+D, Dose Response: With dose response, Evaluation Type: Evaluation B (Post-1980)
[11] = Species/Cell Type: Salmonella typhimurium (one or more of the five standard strains: TA98, TA100, TA1535, TA1537, and TA1538), Assay Type: Histidine reverse gene mutation, Ames assay, Assay Code: SAL+, Evaluation Type: Evaluation A (Pre-1980)
[12] = Species/Cell Type: Nonhuman, Assay Type: Sister-chromatid exchange (SCE) in vitro, Assay Code: SC2T, Evaluation Type: Evaluation B (Post-1980)
[13] = Species/Cell Type: Mammalian polychromatic erythrocytes, Assay Type: Micronucleus test, chromosome aberrations, Assay Code: MNTT, Evaluation Type: Evaluation A (Pre-1980)

CCc1cn([C@H]2C[C@H](O)[C@@H](CO)O2)c(=O)[nH]c1=O was tested, and the mutagenic call [1] was “no conclusion”, the mutagenic call [2] was “no conclusion” and the mutagenic call (Species/Cell Type: Human lymphocytes, Assay Type: Sister-chromatid exchange (SCE) in vitro, Assay Code: SCLT, Evaluation Type: Evaluation B (Post-1980)) was “no conclusion”. The mutagenic call [3] was “no conclusion”.

In the case of Cc1n(C)c([N+](=O)[O-])c[n+]1C, the mutagenic call [4] is reported as “no conclusion”.

In the case of N=NN, the mutagenic call [5] is reported as “active; positive”.

For O=NN1CCCC(O)C1 (configuration not stated), the mutagenic call [6] was “active; positive”.

With O=NN(CCO)CCCCO the mutagenic call [6] was “active; positive”.

For CCCCC(CC)COC(=O)c1ccccc1C(=O)OCC(CC)CCCC (configuration not stated), the call [7] was “active; positive”, the mutagenic call (Species/Cell Type: Nonhuman, Assay Type: Sister-chromatid exchange (SCE) in vitro, Assay Code: SC2T, Evaluation Type: Evaluation A (Pre-1980)) was “no conclusion” and the mutagenic call (Species/Cell Type: Rodents, Sex: Male, Assay Type: Dominant lethal test, Assay Code: DLT+, Evaluation Type: Evaluation A (Pre-1980)) was “active; positive”.

In the case of c1cc2ccc3ccc4ccc5cccc6c(c1)c2c3c4c56, the mutagenic call [4] is reported as “no conclusion”.

With CC1CN(N=O)CC(C)O1 (configuration not stated) the mutagenic call [6] was “active; positive”.

With COP(=S)(OC)Oc1ccc(SC)c(C)c1 the mutagenic call (Species/Cell Type: Bacillus subtilis (H17 vs M45), Assay Type: Rec-assay, spot test, DNA effects (bacterial DNA repair), Assay Code: REWT, Evaluation Type: Evaluation A (Pre-1980)) was “no conclusion”, the mutagenic call [1] was “no conclusion” and the mutagenic call (Species/Cell Type: Escherichia coli WP2 UVRA, Assay Type: Tryptophan reverse gene mutation, Assay Code: WPU-*, Activation: With metabolic activation, Evaluation Type: Evaluation A (Pre-1980)) was “inactive; negative”. For the same compound, the mutagenic call [8] was “no conclusion”, the mutagenic call [9] was “inactive; negative” and the mutagenic call [3] was “no conclusion”. The mutagenic call (Species/Cell Type: Nonhuman, Assay Type: Sister-chromatid exchange (SCE) in vitro, Assay Code: SC2+D*, Activation: With metabolic activation, Dose Response: With dose response, Evaluation Type: Evaluation B (Post-1980)) was “active; positive” and the mutagenic call (Species/Cell Type: Saccharomyces cerevisiae, Assay Type: Mitotic recombination or gene conversion, Assay Code: YEH-, Evaluation Type: Evaluation A (Pre-1980)) was “inactive; negative”.

With CN=NNc1c(Cl)cc(Cl)cc1Cl the mutagenic call [1] was “no conclusion”.

In the case of C[CH2][Hg][N](c1ccccc1)S(=O)(=O)c1ccc(C)cc1, the mutagenic call [5] is reported as “active; positive”.

COP(=S)(OC)Oc1cc(Cl)c(Br)cc1Cl was tested, and the mutagenic call [1] was “no conclusion”.

NCCc1c[nH]c2ccc(O)cc12 (tested in a mixture with another compound) was tested, and the mutagenic call (Species/Cell Type: Drosophila melanogaster, Assay Type: Aneuploidy, whole sex chromosome loss, chromosome aberrations, Assay Code: DACTM, Evaluation Type: Evaluation A (Pre-1980)) was “no conclusion” and the mutagenic call [2] was “no conclusion”.

For O=P(O)(O)CCCl, the mutagenic call (Species/Cell Type: Allium cepa, Assay Type: Chromosome aberrations, Assay Code: ALC+D, Dose Response: With dose response, Evaluation Type: Evaluation A (Pre-1980)) was “active; positive”.

C/C=C1/C[C@@H](C)[C@](O)(CO)C(=O)OCC2=CC[N+]3([O-])CC[C@@H](OC1=O)[C@@H]23 (some centres not stated) was tested, and the mutagenic call [1] was “no conclusion”.

O=c1[nH]c(=O)n([C@H]2C[C@H](O)[C@@H](CO)O2)cc1/C=C/Br was tested, and the mutagenic call (Species/Cell Type: Human lymphocytes, Assay Type: Sister-chromatid exchange (SCE) in vitro, Assay Code: SCL+, Evaluation Type: Evaluation B (Post-1980)) was “active; positive” and the mutagenic call [10] was “active; positive”.

For O=S1(=O)CC=CC1, the call (Species/Cell Type: Nonhuman, Assay Code: CCG-, Evaluation Type: Evaluation A (Pre-1980)) was “inactive; negative”.

For Cn1c([N+](=O)[O-])cnc1/C=N/N1CC(CN2CCOCC2)OC1=O (configuration not stated), the mutagenic call [1] was “no conclusion”, the mutagenic call (Species/Cell Type: Mouse, Sex: Female, Assay Type: Spot test, gene mutation, Assay Code: MST+, Evaluation Type: Evaluation A (Pre-1980)) was “active; positive” and the mutagenic call (Species/Cell Type: Saccharomyces cerevisiae, Assay Type: Mitotic recombination or gene conversion, Assay Code: YEC-, Evaluation Type: Evaluation A (Pre-1980)) was “inactive; negative”.

CC(=O)O/C=C/Cc1cccc2c1OCO2 was tested, and the mutagenic call [4] was “no conclusion”.

In the case of c1ccc2cc(C3CO3)ccc2c1 (configuration not stated), the mutagenic call [11] is reported as “active; positive”.

Cc1cn([C@H]2CC[C@@H](COP(=O)(O)OP(=O)(O)OP(=O)(O)O)O2)c(=O)[nH]c1=O was tested, and the mutagenic call [12] was “no conclusion”.

O=C(CCc1ccc([N+](=O)[O-])o1)NC1CCCCC1 was tested, and the mutagenic call (Species/Cell Type: Neurospora crassa, Assay Type: Forward gene mutation, Assay Code: NEF-, Evaluation Type: Evaluation A (Pre-1980)) was “inactive; negative”.

C=C(Cl)CSC(=S)N(CC)CC was tested, and the call [7] was “active; positive” and the mutagenic call [6] was “active; positive”.

Cc1cc(O)c2c(c1)C(=O)c1cc(O)cc(O[C@@H]3O[C@H](CO)[C@@H](O)[C@H](O)[C@H]3O)c1C2=O was tested, and the mutagenic call [6] was “active; positive”.

In the case of O=[N+]([O-])c1nccn1CC(O)CF (configuration not stated), the mutagenic call [11] is reported as “active; positive”.

In the case of Oc1ccc(O)c(O)c1, the mutagenic call (Species/Cell Type: Allium cepa, Assay Type: Chromosome aberrations, Assay Code: ALC+, Evaluation Type: Evaluation A (Pre-1980)) is reported as “active; positive”.

With CCC(COS(C)(=O)=O)(COS(C)(=O)=O)COS(C)(=O)=O the mutagenic call (Species/Cell Type: Arabidopsis species, Assay Type: Gene mutation, Assay Code: ARM+, Evaluation Type: Evaluation A (Pre-1980)) was “active; positive”.

In the case of Cc1cc(C(=O)NCCc2ccc(S(=O)(=O)NC(=O)NN3CCCCCC3)cc2)no1, the mutagenic call (Species/Cell Type: Nonhuman, Assay Type: Sister-chromatid exchange (SCE) in vivo, Assay Code: SC3T, Evaluation Type: Evaluation B (Post-1980)) is reported as “no conclusion”.

With CCCCN(CCC)N=O the mutagenic call [6] was “active; positive”.

With O=S1(=O)OCCO1 the mutagenic call [11] was “active; positive” and the mutagenic call (Species/Cell Type: Salmonella typhimurium, Assay Type: Forward and reverse gene mutation, host-mediated assay, Assay Code: HMA+, Evaluation Type: Evaluation A (Pre-1980)) was “active; positive”.

With Cc1ccc(S(=O)(=O)NCl)cc1 the mutagenic call (Species/Cell Type: Mammalian polychromatic erythrocytes, Assay Type: Micronucleus test, chromosome aberrations, Assay Code: MNTT, Evaluation Type: Evaluation B (Post-1980)) was “no conclusion”.

For COc1cc(-c2ccc(N)c(OC)c2)ccc1N, the mutagenic call [8] was “no conclusion”, the mutagenic call (Species/Cell Type: Human diploid fibroblasts, Assay Type: Unscheduled DNA synthesis (UDS) in vitro, DNA effects, Assay Code: UDH+*, Activation: With metabolic activation, Evaluation Type: Evaluation A (Pre-1980)) was “active; positive” and the call [7] was “active; positive”. For the same compound, the mutagenic call (Species/Cell Type: Nonhuman, Assay Type: Sister-chromatid exchange (SCE) in vitro, Assay Code: SC2+D, Dose Response: With dose response, Evaluation Type: Evaluation B (Post-1980)) was “active; positive” and the mutagenic call [6] was “active; positive”.

Oc1ccc(Cl)c(O)c1 was tested, and the mutagenic call [13] was “no conclusion” and the mutagenic call (Species/Cell Type: Neurospora crassa, Assay Type: Aneuploidy, chromosome aberrations, Assay Code: NEN-, Evaluation Type: Evaluation A (Pre-1980)) was “inactive; negative”.

CS(=O)(=O)OCCNC(=O)N(CCCl)N=O was tested, and the mutagenic call [5] was “active; positive” and the mutagenic call (Species/Cell Type: Saccharomyces cerevisiae, Assay Type: Mitotic recombination or gene conversion, Assay Code: YEC+, Evaluation Type: Evaluation A (Pre-1980)) was “active; positive”.

With COC1OC[C@@H](C(C)=O)[C@H]1C (some centres not stated) the mutagenic call [12] was “no conclusion”.

With O=c1[nH]c(=O)n([C@H]2C[C@H](O)[C@@H](CO)O2)cc1I the mutagenic call (Species/Cell Type: Arabidopsis species, Assay Type: Gene mutation, Assay Code: ARM-, Evaluation Type: Evaluation A (Pre-1980)) was “inactive; negative”, the mutagenic call [1] was “no conclusion” and the mutagenic call [8] was “no conclusion”. For the same compound, the mutagenic call [9] was “inactive; negative”, the mutagenic call (Species/Cell Type: Human lymphocytes, Assay Type: Sister-chromatid exchange (SCE) in vitro, Assay Code: SCL+D, Dose Response: With dose response, Evaluation Type: Evaluation B (Post-1980)) was “active; positive” and the mutagenic call [10] was “active; positive”. The mutagenic call [13] was “no conclusion”, the mutagenic call (Species/Cell Type: Mouse, Sex: Male, Assay Type: Sperm morphology, Assay Code: SPI+, Evaluation Type: Evaluation A (Pre-1980)) was “active; positive” and the mutagenic call (Species/Cell Type: Saccharomyces cerevisiae, Assay Type: Mitotic recombination or gene conversion, Assay Code: YEH-*, Activation: With metabolic activation, Evaluation Type: Evaluation A (Pre-1980)) was “inactive; negative”. For the same compound, the mutagenic call (Species/Cell Type: Salmonella typhimurium (one or more of the five standard strains: TA98, TA100, TA1535, TA1537, and TA1538), Assay Type: Histidine reverse gene mutation, Ames assay, Assay Code: SAL-, Evaluation Type: Evaluation A (Pre-1980)) was “inactive; negative”, the mutagenic call (Species/Cell Type: Salmonella typhimurium, Assay Type: Forward and reverse gene mutation, host-mediated assay, Assay Code: HMA-, Evaluation Type: Evaluation A (Pre-1980)) was “inactive; negative” and the mutagenic call (Species/Cell Type: Syrian hamster embryo (SA7/SHE) cells, Assay Type: Cell transformation, viral enhanced, Assay Code: CT7+, Evaluation Type: Evaluation A (Pre-1980)) was “active; positive”. The mutagenic call (Species/Cell Type: Syrian hamster embryo (SHE) cells, Assay Type: Cell transformation, clonal assay, Assay Code: CTC-, Evaluation Type: Evaluation A (Pre-1980)) was “inactive; negative”.
